Assay results from PubChem BioAssay (NCI).
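96-well plates; 48 h exposure; 5 concentrations. Endpoints by linear interpolation between flanking doses. Not reached: highest tested concentration assigned. At the TGI there is no net growth.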

Legend:
Assay in all cases: NCI-60 cell line screen, 48 h
[1] = tested on: SK-MEL-2 melanoma
[2] = tested on: EKVX NSCLC
[3] = tested on: SF-295 CNS
[4] = tested on: SNB-19 CNS
[5] = tested on: OVCAR-4 ovarian
[6] = tested on: SN12C renal
[7] = tested on: OVCAR-8 ovarian
[8] = tested on: SR leukemia
[9] = tested on: NCI-H460 lung
[10] = tested on: CAKI-1 renal
[11] = tested on: SK-MEL-5 melanoma
[12] = tested on: NCI-H226 lung
[13] = tested on: TK-10 renal
[14] = tested on: HCT-15 colon
[15] = tested on: OVCAR-5 ovarian
[16] = tested on: NCI-H522 lung
[17] = tested on: CCRF-CEM leukemia
[18] = tested on: SF-539 CNS
[19] = tested on: SW-620 colon
[20] = tested on: KM12 colon
[21] = tested on: OVCAR-3 ovarian
[22] = tested on: U251 CNS
[23] = tested on: A498 renal
[24] = tested on: LOX IMVI melanoma
[25] = tested on: ACHN renal
[26] = tested on: MDA-MB-435
[27] = tested on: K-562 leukemia
[28] = tested on: COLO 205 colon
[29] = tested on: UO-31 renal
[30] = tested on: IGROV1 ovarian
[31] = tested on: PC-3 prostate
[32] = tested on: UACC-257 melanoma
[33] = tested on: HL-60(TB) leukemia
[34] = tested on: NCI/ADR-RES ovarian
[35] = tested on: M14 melanoma
[36] = tested on: SK-MEL-28 melanoma
[37] = tested on: HCT-116 colon
[38] = tested on: HCC-2998 colon
[39] = tested on: RXF 393 renal
[40] = tested on: SNB-75 CNS
[41] = tested on: MDA-MB-231 breast
[42] = tested on: SK-OV-3 ovarian
[43] = tested on: A549 NSCLC
[44] = tested on: RPMI-8226 leukemia
[45] = tested on: HS 578T breast
[46] = tested on: BT-549 breast
[47] = tested on: SF-268 CNS
[48] = tested on: NCI-H23 lung
[49] = tested on: MOLT-4 leukemia
[50] = tested on: HT29 colon
[51] = tested on: MCF7 breast
[52] = tested on: UACC-62 melanoma
[53] = tested on: 786-0 renal
[54] = tested on: HOP-92 NSCLC
[55] = tested on: DU-145 prostate
[56] = tested on: T-47D breast
[57] = tested on: HOP-62 NSCLC

## CC1=NN(c2nc(N)nc(CSCc3nc(N)nc(N(C)C)n3)n2)C(C)(C)C1
[1]
  TGI: > 100 µM
[2]
  TGI: > 100 µM
[3]
  TGI: > 100 µM
[4]
  TGI: > 100 µM
[5]
  TGI: > 100 µM
[6]
  TGI: > 100 µM
[7]
  TGI: > 100 µM
[8]
  TGI: > 100 µM
[9]
  TGI: > 100 µM
[10]
  TGI: > 100 µM
[11]
  TGI: > 100 µM
[12]
  TGI: > 100 µM
[13]
  TGI: > 100 µM
[14]
  TGI: > 100 µM
[15]
  TGI: > 100 µM
[16]
  TGI: > 100 µM
[17]
  TGI: > 100 µM
[18]
  TGI: > 100 µM
[19]
  TGI: > 100 µM
[20]
  TGI: > 100 µM
[21]
  TGI: > 100 µM
[22]
  TGI: > 100 µM
[23]
  TGI: > 100 µM
[24]
  TGI: > 100 µM
[25]
  TGI: > 100 µM
[26]
  TGI: > 100 µM
[27]
  TGI: 32.1 µM
[28]
  TGI: > 100 µM
[29]
  TGI: > 100 µM
[30]
  TGI: > 100 µM
[31]
  TGI: > 100 µM
[32]
  TGI: > 100 µM
[33]
  TGI: > 100 µM
[34]
  TGI: > 100 µM
[35]
  TGI: > 100 µM
[36]
  TGI: > 100 µM
[37]
  TGI: > 100 µM
[38]
  TGI: > 100 µM
[39]
  TGI: > 100 µM
[40]
  TGI: > 100 µM
[41]
  TGI: > 100 µM
[42]
  TGI: > 100 µM
[43]
  TGI: > 100 µM
[44]
  TGI: > 100 µM
[45]
  TGI: > 100 µM
[46]
  TGI: > 100 µM
[47]
  TGI: > 100 µM
[48]
  TGI: > 100 µM
[49]
  TGI: > 100 µM
[50]
  TGI: > 100 µM
[51]
  TGI: > 100 µM
[52]
  TGI: > 100 µM
[53]
  TGI: > 100 µM
[54]
  TGI: > 100 µM
[55]
  TGI: > 100 µM
[56]
  TGI: > 100 µM
[57]
  TGI: > 100 µM
